Literature values, collected in paper PMC9146500, “New Quinoline–Urea–Benzothiazole Hybrids as Promising Antitubercular Agents: Synthesis, In Vitro Antitubercular Activity, Cytotoxicity Studies, and In Silico ADME Profiling” (Pharmaceuticals, 2022).

Conditions: cited from earlier work

CC(C)=CCC/C(C)=C/CNCCNC1C2CC3CC(C2)CC1C3 (stereo not shown) [SQ-109]
clog P: 6.82
